Assay [1] deals with hESC-derived pre-OLs (MBP reporter cells). Briefly: Maturation of MBP-Tomato reporter pre-OLs under normoxia or after 48 h hypoxia (in vitro white matter injury model). The assay is classed as cell-based, human. To be noted: for proportion of MBP+ Tomato+ mature oligodendrocytes: noggin 100 ng/ml, DAPT 1 μM; for proportion of MBP Tomato co-expressing oligodendrocytes: PD0325901 0.25 μM alone or combined, vs vehicle (FIG. 13). As to the method: (§1) Human ESCs (HES1 passages 21 to 42 with a normal karyotype) were cultured as described. hESC colonies were picked up by means of collagenase IV (1 mg/ml; GIBCO-BRL, Gaithersburg, MD) and placed into ultralow adherent culture dishes (Thermo Scientific Nunc HydroCell) to favor sphere aggregation. Spheres were cultured in NDM media consisting of Neural Differentiation Medium (Gibco) and N2B27 supplements with 20 ng/ml FGF-2. Spheres were first patterned with the dual-SMAD inhibitors LDN193189 (1 μM, Cayman Chemical, Ann Arbor, MI) and SB431542 (5 μM, SB; PeproTech Inc, Rocky Hill, NJ) until day 4 when SB431542 was withdrawn and the spheres were further cultured for additional 10 days in the presence LDN193189 and FGF-2. At day 14, the spheres were caudalized and ventralized using 0.1 μM all-trans retinoic acid and 0.5 μM purmorphamine, respectively (PeproTech Inc, Rocky Hill, NJ). At day 35, spheres were switched to modified SATO media, consisting of DMEM/F12, 10 ng/ml biotin, 60 ng/ml progesterone, 16 μg/ml putrescine, 20 μg/ml human insulin, 100 μg/ml apotransferrin, 5 ng/ml sodium selenite, 100 μg/ml bovine serum albumin (BSA), 60 μg/ml N-acetyl cysteine and 2 μg/ml forskolin. The medium was further supplemented with 20 ng/ml FGF-2, 0.5 μM Purmorphamine, 5 ng/ml NT3 and 200 nM ascorbic acid. Media was changed every 3 days for 6-7 weeks. For differentiation, spheres were dissected into small clusters mechanically and plated onto poly-D-lysine/laminin-coated plates and cultured in modified SATO media supplemented with 5 ng/ml NT3, 10 ng/ml IGF-1, 60 ng/ml T3, 100 ng/ml noggin and 200 nM ascorbic acid for 2-4 weeks.
To block Notch signaling, the γ-secretase inhibitor, DAPT (N—[N-(3,5-difluorphenacetyl)-L-alanyl]-S-phenylglycine t-butyl ester), PeproTech Inc, Rocky Hill, NJ) was added freshly every other day to the cells to a concentration of 1 μM. To block MEK/ERK signaling, PD0325901 (PeproTech Inc, Rocky Hill, NJ) was added freshly every other day to the cells to a concentration of 0.25-0.5 μM.
Immunocytochemistry: Cells were fixed in 4% paraformaldehyde for 20 min, washed with PBS, blocked in blocking solution (5% donkey serum, 0.2% Triton X-100 in PBS) for 1 hour, and incubated for 2 hours with primary antibodies mouse anti-Olig2 (Millipore Corporation diluted 1:150) and mouse anti-Nkx-2.2 (Developmental Studies Hybridoma Bank, diluted 1:100). After washing, cells were incubated with secondary antibody, donkey anti-mouse Alexa-488 (Life Technologies, Inc.), for 1 hour before being mounted in VECTASHIELD™ mounting medium. For O4 staining, cells were blocked in blocking solution (5% donkey serum in DMEM/F12) for 1 hour, and incubated with mouse-anti O4 antibody (R&D System, diluted 1:100) for 2 hours. After washing, cells were fixed in 4% paraformaldehyde for 20 min, and incubated with secondary antibody, donkey anti-mouse Alexa-488 or Alexa-555 (Life Technologies, Inc.), for 1 hour before being mounted in VECTASHIELD™ mounting medium. For MBP staining, after fixation cells were washed with PBS+0.01% saponin, blocked in blocking solution (5% goat serum, 0.01% saponin in DMEM/F12) for 1 hour, and incubated with rat anti-MBP antibody (R&D System 1:100) for 2 hours. After washing, cells were incubated with secondary antibody, goat anti-rat antibody (Jackson laboratories, 1:100) for 1 hour before being mounted in VECTASHIELD™ mounting medium.
Plasmid construction and gene targeting: Oligonucleotide encoding the MBP-targeting sgRNA was custom ordered (hy.labs), hybridized and ligated into the BbsI restriction site of pX330-U6-Chimeric-BB-CBh-hSpCas9 vector (Addgene #42230). Homology arms from the human mbp locus were amplified from genomic DNA isolated from HES1 cells by nested PCR (5′ arm: Chr18:74692386-74693344, 3′ arm: Chr18:74691209-74692367). The PCR products was digested and ligated into PNTKV-2A-Tomato donor plasmid. Correct construction of each expression cassette was verified by sequence analysis. […]

The test system of a further assay is EAE mice. As to the kind of experiment: ICV delivery in chronic EAE, Biozzi mouse model of Multiple Sclerosis. The class given is in vivo, Biozzi ABH mice. To be noted: ICV mini-osmotic pump, 5 μg per day, vs vehicle-treated EAE mice. From the text:
The Biozzi mouse model of Multiple Sclerosis: Biozzi ABH mice have genetic tendency to develop autoimmune diseases, and are used for many autoimmune models. The experimental autoimmune model in Biozzi mice is induced by immunization with spinal cord homogenate. Typically, mice develop an acute relapse, followed by remission, and after that a relapsing and progressive course of disease, resembling human multiple sclerosis (MS). […] In the chronic phase of EAE there are typical immunopathological features resembling progressive MS, such as meningeal infiltrates and development of tertiary lymphoid-like tissue, partial closing of the blood-brain-barrier, and reduction in lesion activity with increase in astrogliosis. Therefore, this model is considered one of the most clinical-relevant experimental models of MS. EAE was induced in Biozzi mice. Briefly, mice were inoculated subcutaneously at day 0 and day 7 in both hind flanks with 1 mg spinal cord homogenate emulsified in complete Freund's adjuvant supplemented with 3 μg M. Butyricum. Mice were monitored and scored daily in a blinded manner as follows: 0=normal, 1=limp tail, 2=impaired righting reflex, 3=hind-limb paresis; 4=complete hind-limb paralysis and 5=moribund/death. 10-14 days after the second relapse the mice were divided into two prospective experimental groups. […]

In a further assay the test system is MEK-ERK signalling. The settings on record: mouse; earlier stage of differentiation of the oligodendroglial lineage; cited from earlier work.
The test system of the next assay is hESC-derived pre-OL. Briefly: Terminal maturation of hESC-derived pre-oligodendrocytes into MBP+ oligodendrocytes (MBP immunostaining). To be noted: pre-OL on laminin. The class given is cell-based, human. Here is the method:
as §1, with “2-4 weeks. […] To block MEK/ERK signaling, PD0325901 (PeproTech Inc, Rocky Hill, NJ) was added freshly every other day to the cells to a concentration of 0.25-0.5 μM. […]” for “2-4 weeks.”

The test system of assay [2] is oligodendrocyte progenitors (OLPs) isolated from mouse cerebral cortex. To be noted: cited from earlier work.
The subject of assay [3] is oligodendroglial differentiation. To be noted: cited from earlier work.
Where [4] appears, read: hypoxia 48 hours, then 3 weeks normoxia, vs vehicle.

`C[C@H](NC(=O)Cc1cc(F)cc(F)c1)C(=O)N[C@H](C(=O)OC(C)(C)C)c1ccccc1` [DAPT, N—[N-(3,5-difluorphenacetyl)-L-alanyl]-S-phenylglycine t-butyl ester]: the “proportion of MBP+ Tomato+ mature oligodendrocytes” value in assay [1] (setting [4]) is on record as “increased differentiation”; in assay [1] (normoxia, 3 weeks, vs vehicle), “did not increase”.

For `O=C(NOC[C@H](O)CO)c1ccc(F)c(F)c1Nc1ccc(I)cc1F` [PD0325901], in the assay with EAE mice (28 days from implantation), the “disease course: mean cumulative score of disease” value is reported as “significantly milder”. Besides, the “disease course: final clinical score at day of termination” value in the assay on EAE mice (28 days) was “significantly milder”. Moreover, the oligodendrocyte differentiation result in the assay with MEK-ERK signalling is reported as “augment oligodendrocyte differentiation”. The “proportion of MBP Tomato co-expressing oligodendrocytes” value was “increased proportion” in assay [1] (hypoxia exposed, one week following hypoxia) and “increased proportion” in assay [1] (normoxia, one week). In addition, the “MBP+ Tomato+-expressing oligodendrocytes” value in assay [1] (hypoxia-exposed cultures, 0.25 μM or 0.5 μM for one week) is recorded as “marked increase”. Also, the “branching of processes of MBP+ Tomato+ oligodendrocytes” value in assay [1] (hypoxia-exposed cultures, one week) was “marked increase”. The “number of MBP Tomato co-expressing oligodendrocytes” value is on record as “increased number” in assay [1] (hypoxia-exposed, 0.25 μM, one week following hypoxia, vs vehicle (FIG. 11)); “increased number” in assay [1] (hypoxia-exposed, 0.5 μM, one week following hypoxia, vs vehicle (FIG. 12)); “increased number” in assay [1] (normoxia, 0.25 μM, one week, vs vehicle (FIG. 11)); “increased number” in assay [1] (normoxia, 0.5 μM, one week, vs vehicle (FIG. 12)). In addition, the “proportion of MBP+ Tomato+ oligodendrocytes” value in assay [1] (normoxia, 0.25 μM or 0.5 μM for one week, vs vehicle) was “significant increase”. In addition, the “branching of the processes of MBP+ oligodendrocytes” value in assay [1] (normoxia, one week) is listed as “significantly enhanced”. In addition, the “effect on pre-OLs maturation compared with noggin or DAPT” value in assay [1] (one week of treatment vs two-three weeks with noggin and/or DAPT) is given as “more prominent”. In addition, the “culture period after which maturation was obtained” value with hESC-derived pre-OL is listed as 1 week. Further, the “branching of processes of MBP+ cells” value with hESC-derived pre-OL (1 week) was “enhanced branching”. Besides, the “proportion of MBP mature oligodendrocytes / maturation into MBP+ cells” value with hESC-derived pre-OL (DAPT+noggin 2 weeks, PD0325901 1 week, vs vehicle) is “highly significant augmentation”.

As to `Oc1nc(-c2ccc(C(F)(F)F)cc2)nc2c1CSCC2` [XAV939], in assay [2], the “differentiation of oligodendrocyte progenitors (OLPs)” value is given as “promote differentiation”.

B1: noggin: BMP antagonist (protein, UniProt Q13253 28-232, looked up)
Noggin: QHYLHIRPAPSDNLPLVDLIEHPDPIFDPKEKDLNETLLRSLLGGHYDPGFMATSPPEDRPGGGGGAAGGAEDLAELDQLLRQRPSGAMPSEIKGLEFSEGLAQGKKQRLSKKLRRKLQMWLWSQTFCPVLYAWNDLGSRFWPRYVKVGSCFSKRSCSVPEGMVCKPSKSVHLTVLRWRCQRRGGQRCGWIPIQYPIISECKCSC
In the case of B1, in assay [3], the “oligodendroglial differentiation and maturation” value is “enhance oligodendroglial differentiation and maturation”. Also, the “proportion of MBP+ Tomato+ mature oligodendrocytes” value is listed as “substantial increase” in assay [1] (setting [4]) and “substantial increase” in assay [1] (normoxia, 3 weeks, vs vehicle).

The values are drawn from patent publication US12661329B2, “Methods of generating oligodendrocytes” (Hadasit Medical Research Services and Development Ltd., priority 2019, dated 2026).
